Assay results published in US20240300945A1, “CLY SERIES COMPOUND, PREPARATION METHOD THEREFOR AND USE THEREOF IN PREPARATION OF DRUGS” (NANJING WELLBEST PHARMACEUTICAL CO., LTD, priority 2021, published 2024).

Experiments:
serum IL-4 = experiment: Mouse eczema model: serum IL-4 (ELISA); format: in vivo, C57BL/6 mice; conditions: after modeling, 0.1% cream for external use twice a day, 10 days (positive: aloxone)
Description: SPF grade female C57BL/6 mice were purchased at the age of 8 weeks (0.02 kg), 6 in each group, and randomly divided into the blank control group, model group, positive drug group, CLY-1 treatment group (0.1% CLY-1 cream for external use), CLY-2 treatment group (0.1% CLY-2 cream for external use), CLY-3 treatment group (0.1% CLY-3 cream for external use), CLY-4 treatment group (0.1% CLY-4 cream for external use), CLY-8 treatment group (0.1% CLY-8 cream for external use), CLY-11 treatment group (0.1% CLY-11 cream for external use) CLY-19 treatment group (0.1% CLY-19 cream for external use), CLY-36 treatment group (0.1% CLY-36 cream for external use) and CLY-39 treatment group (0.1% CLY-39 cream for external use).
Model establishment: the normal control group mice were smeared with 75% ethanol 14.3 ul on both ears, while the model group, positive drug group and treatment group were smeared with 1 nmol/L carpotriol liniment 14.3 ul on both ears at a regular time every day, and then smeared with 20 g/L OVA 25 ul after air drying, once a day, for 12 days to make a model.
From 4 days after the start of modeling, applied the cream matrix on the ear skin of mice in the blank control group and the model group, applied aloxone on the ear skin of mice in the positive drug group, and applied the treatment cream on the ear skin of mice in each treatment group respectively, twice a day in the morning and evening, for 10 consecutive days, took photos every day, and recorded scores.
The thickness of mouse auricle was measured and recorded with ear thickness measuring instrument before and on the 14th day respectively. After the measurement on the 14th day, the mice were sacrificed. Blood was taken and serum was separated.
The enzyme-labeled plate was coated with rabbit anti-mouse interleukin (IL)-4 antibody, stayed at 4° C. overnight, and the reaction was stopped according to the instructions of the ELISA kit to detect the level of serum IL-4. ELISA kits were all purchased from Raybiotech, USA.

[1] = system: skin hair follicles and sebaceous glands of rats; experiment: Rat hair loss model: histopathological grading of skin hair follicles and sebaceous glands; format: in vivo, Wistar rats; conditions: 60 days, 10 rats per group; for number of rats with hair follicle and sebaceous gland grade +++: grade +++ (most severe); for number of rats with hair follicle and sebaceous gland grade ±: grade ± (lesions limited); for number of rats with hair follicle and sebaceous gland grade −: grade − (normal structure)
Description: Wistar rats were, according to weights, randomly divided into the negative control group (75% ethanol for external use), model group (75% ethanol for external use), positive control group (external 5% minoxidil tincture), CLY-1 external treatment group (external 5% CLY-1 tincture), CLY-2 external treatment group (external 5% CLY-2 tincture), CLY-3 external treatment group (external 5% CLY-3 tincture), CLY-4 external treatment group (external 5% CLY-4 tincture), and CLY-5 external treatment group (external 5% CLY-5 tincture) according to their body weight CLY-8 external treatment group (external 5% CLY-8 tincture), CLY-11 external treatment group (external 5% CLY-11 tincture), CLY-19 external treatment group (external 5% CLY-19 tincture), CLY-36 external treatment group (external 5% CLY-36 tincture), CLY-39 external treatment group (external 5% CLY-39 tincture), CLY-1 intravenous injection group (2 mg/kg·d), CLY-3 intravenous injection group (2 mg/kg·d), CLY-4 intravenous injection group (2 mg/kg·d) CLY-5 intravenous injection group (2 mg/kg·d), CLY-8 intravenous injection group (2 mg/kg·d), CLY-11 intravenous injection group (2 mg/kg·d), CLY-19 intravenous injection group (2 mg/kg·d), CLY-36 intravenous injection group (2 mg/kg·d), and CLY-39 intravenous injection group (2 mg/kg·d), with 10 rats in each group. Before the experiment, an area of 4 cm×5 cm was selected on each rat on the back of the neck to remove hair as the observation area. In addition to the negative control group, rats were subcutaneously injected with testosterone propionate injection [5 ml/(kg·d)] once a day for 60 days to establish the androgenic alopecia (AGA) model. […] At the same time, the drug was applied to the observation area on the back of the rats in the corresponding drug group at the rate of 2 mL/(one time), twice a day, at an interval of 8 hours; Intravenous administration once a day. The negative control group and the model control group were smeared with 75% ethanol solution, 2 mL/(one rat per time), twice a day, for 60 days.
Took 10 hairs from the observation area on the back of each rat every 15 days after administration, and measured the hair length with a vernier caliper. After 60 days of administration, the skin of the experimental observation area was taken for routine tissue dehydration, paraffin embedding, HE staining, and light microscopy to observe the histopathological changes of the rat skin hair follicles and sebaceous glands. Semi-quantitative analysis was performed for each group. The grading criteria are as follows: the normal structure of dermal tissue cells, subcutaneous hair follicles, and sebaceous glands is marked as […]: no hyperplasia of dermal tissue is found, the lesions of hair follicles and sebaceous glands are limited, and no inflammation is found under the skin is marked as “+”: no obvious hyperplasia of dermal tissue is found, and the follicles are obviously cystic. No obvious hyperplasia of sebaceous glands is found, and no inflammation is found under the skin is marked as “+”: the dermal tissue has segmental hyperplasia, which is not obvious, A small number of hair follicles have cystic changes, and the sebaceous glands have mild hyperplasia and hypertrophy. There is no obvious inflammation under the skin, which is marked as “++”: the dermal tissue cells of the skin have different degrees of segmental hyperplasia, and some hair follicles have cystic changes, showing uneven size of hair follicles, and no cells around. The sebaceous glands have hyperplasia, and the nuclei in the proliferative glands are few. A few rats have mild inflammatory hyperplasia under the skin, which is marked as “+++”.

[2] = Pharmacokinetic properties of rats (bioavailability); format: in vivo; conditions: rat, po; male SD rats; intravenous 1 mg/kg, intragastric 5 mg/kg; plasma LC/MS/MS
Experimental: Male SD rats were randomly assigned to each group, 12 rats in each compound group, and then randomly divided into two groups. Six rats were administered intravenously (1 mg/kg), and blood was collected and plasma was separated respectively at 0.0833, 0.25, 0.5, 1, 2, 4, 6, 8, and 24 hours after administration. The other six rats were administered intragastrically (5 mg/kg), and blood was collected and plasma was separated respectively at 0.25, 0.5, 1, 2, 4, 6, 8, and 24 hours after administration. The concentration of each compound in plasma was determined by LC/MS/MS method, and the relevant pharmacokinetic parameters were calculated by using the software Phoenix WinNonlin 6.2.1, the bioavailability in rats was calculated, and the pharmacokinetic properties of each compound were evaluated.

Row | bioavailability [2] [%] | Structure (SMILES) | IL-4 level in peripheral blood (serum IL-4) [pg/mL] | number of rats with hair follicle and sebaceous gland grade +++ ([1]; external 5% tincture) | number of rats with hair follicle and sebaceous gland grade +++ ([1]; intravenous 2 mg/kg·d) | number of rats with hair follicle and sebaceous gland grade ++ ([1]; external 5% tincture) | number of rats with hair follicle and sebaceous gland grade ++ ([1]; intravenous 2 mg/kg·d) | number of rats with hair follicle and sebaceous gland grade + ([1]; external 5% tincture) | number of rats with hair follicle and sebaceous gland grade + ([1]; intravenous 2 mg/kg·d) | number of rats with hair follicle and sebaceous gland grade ± ([1]; external 5% tincture) | number of rats with hair follicle and sebaceous gland grade ± ([1]; intravenous 2 mg/kg·d) | number of rats with hair follicle and sebaceous gland grade − ([1]; external 5% tincture) | number of rats with hair follicle and sebaceous gland grade − ([1]; intravenous 2 mg/kg·d)
1 | 66.3 | O=C(c1ccc(-c2ccccc2-c2nnn[nH]2)cc1)N(c1ncccc1Cl)[C@@H]1CCCNC1 [CLY-19] | 5.72 | 0 | 0 | 2 | 2 | 3 | 2 | 5 | 6 | 0 | 0
2 | 65.6 | Nc1ccccc1-c1ccc(C(=O)N(c2ncccc2Cl)[C@@H]2CCCNC2)cc1 [CLY-39] | 5.75 | 0 | 0 | 1 | 1 | 3 | 2 | 6 | 7 | 0 | 0

Row | Structure (SMILES) | bioavailability [2] [%] | IL-4 level in peripheral blood (serum IL-4) [pg/mL] | number of rats with hair follicle and sebaceous gland grade +++ ([1]; external 5% tincture) | number of rats with hair follicle and sebaceous gland grade +++ ([1]; intravenous 2 mg/kg·d) | number of rats with hair follicle and sebaceous gland grade ++ ([1]; external 5% tincture) | number of rats with hair follicle and sebaceous gland grade ++ ([1]; intravenous 2 mg/kg·d) | number of rats with hair follicle and sebaceous gland grade + ([1]; external 5% tincture) | number of rats with hair follicle and sebaceous gland grade + ([1]; intravenous 2 mg/kg·d) | number of rats with hair follicle and sebaceous gland grade ± ([1]; external 5% tincture) | number of rats with hair follicle and sebaceous gland grade ± ([1]; intravenous 2 mg/kg·d) | number of rats with hair follicle and sebaceous gland grade − ([1]; external 5% tincture) | number of rats with hair follicle and sebaceous gland grade − ([1]; intravenous 2 mg/kg·d)
3 | O=C(c1ccc(-c2ccccc2Cl)cc1)N(c1ncccc1Cl)[C@@H]1CCCNC1 [CLY-36] | 68.6 | 5.86 | 0 | 0 | 3 | 3 | 2 | 1 | 5 | 6 | 0 | 0
